Test in all cases: NCI anticancer screen, dose series, 48 h
For experiment [1], the system named is ACHN renal.
Experiment [2] deals with EKVX NSCLC.
Experiment [3] deals with HT29 colon.
Experiment [4] relates to IGROV1 ovarian.
The subject of experiment [5] is SNB-19 CNS.
Experiment [6] concerns TK-10 renal.
Experiment [7] relates to UO-31 renal.
Experiment [8] concerns NCI-H522 lung.
Experiment [9] relates to SK-MEL-5 melanoma.

Structures are written as SMILES.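 Step 1: Grow cells in 96-well plates. Step 2: Expose to compound for 48 hours at 5 concentrations. Step 3: Interpolate endpoints linearly; if unreached, use highest concentration. TGI: concentration producing complete growth inhibition.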

Turning to `COc1cc(C2C(C(=O)Nc3ccccc3)=C(C)NC(C)=C2C(=O)Nc2ccccc2)ccc1O`, the TGI is above 100 µM in experiment [1]; above 100 µM in [2]; 33.8 µM in experiment [3]; above 100 µM in [4]; above 100 µM in [5]; above 100 µM in experiment [6]. For the same compound, the TGI in experiment [7] is above 100 µM.

On to `O=c1[nH]c(=S)[nH]c(O)c1/C=C1\C=CC=N1`, for which the TGI was 29.6 µM in experiment [1]; 56.7 µM in experiment [2]; 54.2 µM in [3]; 65 µM in experiment [4]; 3.59 µM in experiment [8]; above 100 µM in experiment [9]. For the same compound, the TGI in experiment [5] is above 100 µM; in experiment [6], 37.7 µM; in experiment [7], 31.2 µM.

Regarding `O=[N+]([O-])c1ccccc1C1N2CCCCC2[C@@H]2c3[nH]c4ccccc4c3CCN12` (some centres not stated), the TGI worked out at 31.3 µM in experiment [1]; 41.3 µM in experiment [2]; 20.8 µM in [3]; 40.9 µM in experiment [4]; 26.2 µM in experiment [9]; 33.4 µM in experiment [5]. Further, the TGI in experiment [6] turned out to be 38.4 µM; in experiment [7], 23.5 µM.

Take `Fc1ccccc1C1CC(C(c2ccccc2)c2ccccc2)=Nc2ccccc2S1` (configuration not stated): the TGI in experiment [1] was found to be 43.6 µM; in experiment [2] it was 24.5 µM; in experiment [3], 26.3 µM; in [4], 28.8 µM; in experiment [8], 21.7 µM; in experiment [9], 24.9 µM. Moreover, the TGI in [5] turned out to be 32.2 µM; in [6], 25.2 µM; in experiment [7], 28.8 µM.

For `O=[N+]([O-])c1ccc(Cl)c(C2SCc3nc4ccccc4n32)c1` (configuration not stated), the TGI in experiment [1] was above 100 µM; in experiment [2] it was above 100 µM; in experiment [3], above 100 µM; in experiment [4], above 100 µM; in experiment [8] it was above 100 µM; in [9] it was 30.4 µM. For the same compound, the figures for the TGI in experiment [5], in experiment [6] and in experiment [7] were above 100 µM, above 100 µM and 66.1 µM, respectively.

For `COc1ccc2c(c1)CC[C@@H]1C2CC[C@]2(C)C(=O)NC(=O)CC12` (some centres not stated), the TGI in [1], in [2], in experiment [3], in experiment [4], in experiment [8] and in experiment [9] was above 100 µM throughout. Moreover, the TGI in experiment [5], in experiment [6] and in experiment [7] was above 100 µM throughout.

For the compound `CCc1cccc(C)c1NC(=O)NS(=O)(=O)c1ccc(C)cc1`, the TGI in experiment [1], in [2], in [4], in experiment [8], in experiment [9] and in [5] was above 100 µM each time. Also, the TGI in [6] and in [7] was above 100 µM in each case.

`Cc1cc(C)nc(NS(=O)(=O)c2ccc(NC(=O)c3cccc4cc5ccccc5nc34)cc2)n1`: the TGI in experiment [1] is above 100 µM; in experiment [2], above 100 µM; in experiment [3], above 100 µM; in experiment [4], above 100 µM; in experiment [8], 54.3 µM; in experiment [9], above 100 µM. Also, the TGI in [5] is 90.7 µM; in experiment [6], above 100 µM; in experiment [7], above 100 µM.

For the compound `Cc1cc(C)c(C(=O)OC(c2ccccc2)C(c2ccccc2)N2CCOCC2)c(C)c1` (configuration not stated), the TGI in experiment [1], in [2], in experiment [3], in experiment [4], in experiment [8] and in experiment [5] was above 100 µM throughout. Further, the TGI in experiment [6] and in experiment [7] was above 100 µM each time.

`CN(O)C(=O)Cc1ccccc1`: the TGI in experiment [1], in experiment [3], in [4], in experiment [8], in [9] and in experiment [5] was above 100 µM each time. Moreover, the TGI in experiment [6] and in experiment [7] was above 100 µM in each case.

`C[Si](C)(C)/C=C/CN1C(=O)CCC1O` (configuration not stated): the TGI in [1], in experiment [2], in experiment [3], in experiment [4], in experiment [8] and in experiment [9] was above 100 µM each time. For the same compound, the TGI in experiment [5], in experiment [6] and in experiment [7] was above 100 µM each time.

Turning to `COc1ccc(O)c2c1C(=O)CCCC2=O`, the TGI in [1], in experiment [2], in [3], in [4], in experiment [8] and in experiment [9] was above 100 µM throughout. The TGI in experiment [5], in experiment [6] and in experiment [7] was above 100 µM each time.

On to `CCOC(=O)C(C[Si](C)(C)C)P(=O)(OCC)OCC` (configuration not stated), for which the TGI in [1], in experiment [3], in experiment [4], in experiment [8], in experiment [9] and in [6] was above 100 µM throughout. This compound also registered a TGI in [7] above 100 µM.

As to `CCC1(CN(C)C)CC/C(=C\c2ccc3c(c2)OCO3)C1=O` (configuration not stated), the TGI in experiment [1], in [2], in experiment [3], in experiment [4], in [8] and in experiment [9] was above 100 µM throughout. For the same compound, the TGI in [5], in experiment [6] and in experiment [7] was above 100 µM throughout.

As to `O=C1C2=C(c3ccccc31)C(c1ccccc1Cl)N1C(=O)CSC1=N2` (configuration not stated), the TGI in experiment [1] was above 100 µM; in experiment [2] it was above 100 µM; in experiment [3], above 100 µM; in [4], above 100 µM; in [8], 88.7 µM; in [9], above 100 µM. Also, the TGI in experiment [5], in experiment [6] and in experiment [7] was above 100 µM each time.

The record behind these values is PubChem BioAssay (NCI).
